Measurements published in patent US9983195B2, “Engineered three-dimensional breast tissue, adipose tissue, and tumor disease model” (ORGANOVO, INC., priority 2014, dated 2018).

Legend:
Type in all cases: cell-based, human
[1] = tested on: bioprinted breast cancer constructs (MCF7/HUVEC cancer node surrounded by NHMF, HUVEC, SPA stroma); experiment: Construct viability after drug treatment by alamarBlue assay; conditions: 10 μM compound for 3 days, followed by 100 μM compound for 24 hours; FIG. 14
Source text: Bioprinted breast cancer constructs were generated in which a cancer cell node, composed of MCF7 breast cancer cells and human umbilical vein endothelial (HUVEC) cells, is surrounded on all sides by a stromal compartment composed of normal human mammary fibroblasts (NHMF), HUVEC cells, and subcutaneous preadipocytes (SPA). Bio-inks were produced by combining cells with a reversibly cross-linkable, alginate-containing hydrogel (Novogel® 3.0 System; Organovo, Calif.). The stromal compartment of the constructs was comprised of 65% NHMF, 25% HUVEC, and 10% SPA (partially pre-differentiated). The cancer compartment of the constructs was comprised of 75% MCF7, 25% HUVEC. For each compartment, cells were mixed together at the indicated ratio and resuspended in Novogel® 3.0 at a concentration of 150 million cells/ml. Constructs were printed as 3 layered structures with a dimension of 3 mm×3 mm×0.75 mm. Immediately following bioprinting, constructs were stabilized via crosslinking. After 2 minutes, the calcium crosslinking solution was aspirated and replaced with culture media. After 2 days in culture, constructs were treated overnight with enzyme dissolved in culture media to remove the Novogel® 3.0. […] Constructs were assessed for metabolic activity by alamarBlue assay (Life Technologies, Carlsbad, Calif.) or CellTiter Glo assay (Promega, Madison, Wis.). […]

[2] = tested on: bioprinted breast cancer tumor models (stromal and cancer compartments); experiment: Apoptosis by TUNEL staining with CK8 and TE7 markers in bioprinted breast cancer tumor models; conditions: 100 μM cisplatin for 4 days; FIG. 22
Source text: (§1) The breast cancer tumor models included a nodule of human breast cancer cells surrounded by a physiologically-relevant stromal layer, which included human adipocytes differentiated from human mesenchymal stem cells, human mammary fibroblasts, and human endothelial cells. The adipocytes were derived from mesenchymal stem cells which were isolated an exposed to an adipocyte differentiation signal prior to preparation of the bio-ink and bioprinting.
Referring to FIG. 22, bioprinted tissues were treated with vehicle (A-C) or 100 μM cisplatin (D-F) for 4 days. The first (A and D) and second (B and E) columns depict tissues assessed for apoptosis by TUNEL staining (green) and markers for cancer cells (CK8, red). The last (C and F) column depicts tissues assessed for apoptosis by TUNEL staining (green) and markers for fibroblasts (TE7, red).

[3] = tested on: breast cancer cells in two-dimensional culture and bioprinted breast cancer tumor models; experiment: Viability by ATP luciferase assay, two-dimensional breast cancer cell culture versus bioprinted breast cancer tumor models; conditions: 10 μM tamoxifen for 48 hours, FIG. 20
Source text: as §1
The breast cancer tumor models were exposed to chemotherapy compounds in order to access drug response. Referring to FIG. 20, breast cancer cells grown in two-dimensional cell culture (A) and the bioprinted breast cancer tumor models (B) were treated with media alone, DMSO, or 10 μM tamoxifen for 48 hours and assessed for viability by ATP luciferase assay. For each graph, * indicates p<0.05 for treatment compared to control.

SMILES | construct viability (alamarBlue) relative to media or vehicle controls [1] | apoptosis (TUNEL) in stromal versus cancer compartment [2] | susceptibility to tamoxifen-induced toxicity, two-dimensional cells versus three-dimensional bioprinted constructs [3]
N.N.[Cl][Pt][Cl] [Cisplatin, cisplatin] | decreased construct viability | induces greater apoptosis in the stromal compartment of bioprinted tissues than in the cancer compartment | 
CC(=O)O[C@H]1C(=O)[C@@]2(C)[C@H]([C@H](OC(=O)c3ccccc3)[C@]3(O)C[C@H](OC(=O)[C@H](O)[C@@H](NC(=O)c4ccccc4)c4ccccc4)C(C)=C1C3(C)C)[C@]1(OC(C)=O)CO[C@@H]1C[C@@H]2O [paclitaxel] | decreased construct viability |  | 
CC/C(=C(\c1ccccc1)c1ccc(OCCN(C)C)cc1)c1ccccc1 [tamoxifen] |  |  | Isolated two-dimensional cancer cells were more susceptible to tamoxifen-induced toxicity than cells incorporated into three-dimensional bioprinted constructs
